# Reference: PubChem BioAssay (NCI)
#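 The compound was tested at five concentrations on cells cultured in 96-well plates, with a 48-hour exposure period. GI50 marks 50% less growth. TGI: concentration producing complete growth inhibition.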
# Columns and labels:
# Assay in all cases: inhibition of tumour cell growth, NCI panel, 48 h
# 786-0 renal = test system: 786-0 renal
# A498 renal = test system: A498 renal
# A549 NSCLC = test system: A549 NSCLC
# ACHN renal = test system: ACHN renal
# BT-549 breast = test system: BT-549 breast
# CAKI-1 renal = test system: CAKI-1 renal
# CCRF-CEM leukemia = test system: CCRF-CEM leukemia
# COLO 205 colon = test system: COLO 205 colon
# DU-145 prostate = test system: DU-145 prostate
# EKVX NSCLC = test system: EKVX NSCLC
# HCC-2998 colon = test system: HCC-2998 colon
# HCT-116 colon = test system: HCT-116 colon
# HCT-15 colon = test system: HCT-15 colon
# HL-60(TB) leukemia = test system: HL-60(TB) leukemia
# HOP-62 NSCLC = test system: HOP-62 NSCLC
# HOP-92 NSCLC = test system: HOP-92 NSCLC
# HS 578T breast = test system: HS 578T breast
# HT29 colon = test system: HT29 colon
# IGROV1 ovarian = test system: IGROV1 ovarian
# LOX IMVI melanoma = test system: LOX IMVI melanoma
# M14 melanoma = test system: M14 melanoma
# MALME-3M melanoma = test system: MALME-3M melanoma
# MCF7 breast = test system: MCF7 breast
# MDA-MB-231 breast = test system: MDA-MB-231 breast
# MDA-MB-435 = test system: MDA-MB-435
# MDA-MB-468 breast = test system: MDA-MB-468 breast
# MOLT-4 leukemia = test system: MOLT-4 leukemia
# NCI-H226 lung = test system: NCI-H226 lung
# NCI-H23 lung = test system: NCI-H23 lung
# NCI-H460 lung = test system: NCI-H460 lung
# NCI-H522 lung = test system: NCI-H522 lung
# NCI/ADR-RES ovarian = test system: NCI/ADR-RES ovarian
# OVCAR-3 ovarian = test system: OVCAR-3 ovarian
# OVCAR-4 ovarian = test system: OVCAR-4 ovarian
# OVCAR-5 ovarian = test system: OVCAR-5 ovarian
# OVCAR-8 ovarian = test system: OVCAR-8 ovarian
# PC-3 prostate = test system: PC-3 prostate
# RPMI-8226 leukemia = test system: RPMI-8226 leukemia
# RXF 393 renal = test system: RXF 393 renal
# SF-268 CNS = test system: SF-268 CNS
# SF-295 CNS = test system: SF-295 CNS
# SF-539 CNS = test system: SF-539 CNS
# SK-MEL-2 melanoma = test system: SK-MEL-2 melanoma
# SK-MEL-28 melanoma = test system: SK-MEL-28 melanoma
# SK-MEL-5 melanoma = test system: SK-MEL-5 melanoma
# SK-OV-3 ovarian = test system: SK-OV-3 ovarian
# SN12C renal = test system: SN12C renal
# SNB-19 CNS = test system: SNB-19 CNS
# SNB-75 CNS = test system: SNB-75 CNS
# SR leukemia = test system: SR leukemia
# TK-10 renal = test system: TK-10 renal
# U251 CNS = test system: U251 CNS
# UACC-257 melanoma = test system: UACC-257 melanoma
# UACC-62 melanoma = test system: UACC-62 melanoma
# UO-31 renal = test system: UO-31 renal
compound,measurement,setting,value
COc1ccc2c(c1)c(-c1cc(N)n3nc(-c4c[nH]c5ccccc45)cc3n1)cn2C,GI50,786-0 renal,1610 nM
same,TGI,786-0 renal,3000 nM
same,GI50,A498 renal,14000 nM
same,TGI,A498 renal,27600 nM
same,GI50,A549 NSCLC,1860 nM
same,TGI,A549 NSCLC,3700 nM
same,GI50,ACHN renal,1700 nM
same,TGI,ACHN renal,3100 nM
same,GI50,BT-549 breast,12800 nM
same,TGI,BT-549 breast,25600 nM
same,GI50,CAKI-1 renal,1820 nM
same,TGI,CAKI-1 renal,3520 nM
same,GI50,CCRF-CEM leukemia,2140 nM
same,TGI,CCRF-CEM leukemia,5420 nM
same,GI50,COLO 205 colon,2020 nM
same,TGI,COLO 205 colon,3830 nM
same,GI50,DU-145 prostate,3290 nM
same,TGI,DU-145 prostate,10200 nM
same,GI50,EKVX NSCLC,1700 nM
same,TGI,EKVX NSCLC,3630 nM
same,GI50,HCC-2998 colon,1630 nM
same,TGI,HCC-2998 colon,3040 nM
same,GI50,HCT-116 colon,1720 nM
same,TGI,HCT-116 colon,3090 nM
same,GI50,HCT-15 colon,1310 nM
same,TGI,HCT-15 colon,2750 nM
same,GI50,HL-60(TB) leukemia,1760 nM
same,TGI,HL-60(TB) leukemia,3780 nM
same,GI50,HOP-62 NSCLC,2020 nM
same,TGI,HOP-62 NSCLC,3920 nM
same,GI50,HOP-92 NSCLC,1870 nM
same,TGI,HOP-92 NSCLC,3860 nM
same,GI50,HS 578T breast,3110 nM
same,TGI,HS 578T breast,17600 nM
same,GI50,HT29 colon,1770 nM
same,TGI,HT29 colon,3470 nM
same,GI50,IGROV1 ovarian,2030 nM
same,TGI,IGROV1 ovarian,3880 nM
same,GI50,LOX IMVI melanoma,1680 nM
same,TGI,LOX IMVI melanoma,3040 nM
same,GI50,M14 melanoma,1720 nM
same,TGI,M14 melanoma,3250 nM
same,GI50,MALME-3M melanoma,1790 nM
same,TGI,MALME-3M melanoma,3180 nM
same,GI50,MCF7 breast,1680 nM
same,TGI,MCF7 breast,3350 nM
same,GI50,MDA-MB-231 breast,2070 nM
same,TGI,MDA-MB-231 breast,3650 nM
same,GI50,MDA-MB-435,1830 nM
same,TGI,MDA-MB-435,3540 nM
same,GI50,MDA-MB-468 breast,1360 nM
same,TGI,MDA-MB-468 breast,2690 nM
same,GI50,MOLT-4 leukemia,2050 nM
same,TGI,MOLT-4 leukemia,5730 nM
same,GI50,NCI-H226 lung,2130 nM
same,TGI,NCI-H226 lung,5110 nM
same,GI50,NCI-H23 lung,1720 nM
same,TGI,NCI-H23 lung,3390 nM
same,GI50,NCI-H460 lung,2230 nM
same,TGI,NCI-H460 lung,5030 nM
same,GI50,NCI-H522 lung,1780 nM
same,TGI,NCI-H522 lung,3500 nM
same,GI50,NCI/ADR-RES ovarian,2080 nM
same,TGI,NCI/ADR-RES ovarian,5070 nM
same,GI50,OVCAR-3 ovarian,2020 nM
same,TGI,OVCAR-3 ovarian,4280 nM
same,GI50,OVCAR-4 ovarian,2420 nM
same,TGI,OVCAR-4 ovarian,5930 nM
same,GI50,OVCAR-5 ovarian,2050 nM
same,TGI,OVCAR-5 ovarian,4080 nM
same,GI50,OVCAR-8 ovarian,2050 nM
same,TGI,OVCAR-8 ovarian,4770 nM
same,GI50,PC-3 prostate,2560 nM
same,TGI,PC-3 prostate,8610 nM
same,GI50,RPMI-8226 leukemia,2370 nM
same,TGI,RPMI-8226 leukemia,5740 nM
same,GI50,RXF 393 renal,1500 nM
same,TGI,RXF 393 renal,2900 nM
same,GI50,SF-268 CNS,2350 nM
same,TGI,SF-268 CNS,5480 nM
same,GI50,SF-295 CNS,1580 nM
same,TGI,SF-295 CNS,3010 nM
same,GI50,SF-539 CNS,1630 nM
same,TGI,SF-539 CNS,2980 nM
same,GI50,SK-MEL-2 melanoma,1860 nM
same,TGI,SK-MEL-2 melanoma,3960 nM
same,GI50,SK-MEL-28 melanoma,1730 nM
same,TGI,SK-MEL-28 melanoma,3110 nM
same,GI50,SK-MEL-5 melanoma,1680 nM
same,TGI,SK-MEL-5 melanoma,3040 nM
same,GI50,SK-OV-3 ovarian,2580 nM
same,TGI,SK-OV-3 ovarian,6430 nM
same,GI50,SN12C renal,1870 nM
same,TGI,SN12C renal,3810 nM
same,GI50,SNB-19 CNS,2610 nM
same,TGI,SNB-19 CNS,6310 nM
same,GI50,SNB-75 CNS,1760 nM
same,TGI,SNB-75 CNS,3800 nM
same,GI50,SR leukemia,1430 nM
same,TGI,SR leukemia,6400 nM
same,GI50,TK-10 renal,1760 nM
same,TGI,TK-10 renal,3340 nM
same,GI50,U251 CNS,1640 nM
same,TGI,U251 CNS,3210 nM
same,GI50,UACC-257 melanoma,1840 nM
same,TGI,UACC-257 melanoma,3430 nM
same,GI50,UACC-62 melanoma,1800 nM
same,TGI,UACC-62 melanoma,3200 nM
same,GI50,UO-31 renal,1610 nM
same,TGI,UO-31 renal,3120 nM
